Earlier results, collected in patent US7612214B2, “Organic amine salts of glutamic acid derivatives and their application” (Ajinomoto Co., Inc., priority 2003, dated 2009).
Several values for one entry are separate records, joined by “and”; a condition that tells them apart may be missing. Identical values can stand only once.

Conditions: (2S,4S) isomer derived from the natural plant; literature report (Vleggaar et al.)

N[C@@H](C[C@@](O)(Cc1c[nH]c2ccccc12)C(=O)O)C(=O)O [(2S,4S) isomer, (2S,4S)-2-amino-4-carboxy-4-hydroxy-5-(3-indolyl)pentanoic acid]
degree of sweetness: 800 times of sucrose and 1400 times of sucrose
